# Read-outs that look alike come from different tables or passages of the source.
# Molecular target: T1, DPP-IV enzyme (Rattus norvegicus, UniProt P14740)
# T1 construct: made in house
# Assay: DPP-IV dipeptide (Ala-Pro-AFC) cleavage inhibition, fluorescent assay
# Format: biochemical
# Method: DPP-IV catalytic activity and inhibition of dipeptide cleavage was measured using a fluorescent assay performed at room temperature in 384-well, black polypropylene microplates. […] Assay data shown in Fig. 3 were performed with a one-hour incubation time. The data were fit to the four-parameter model using a Levenburg–Marquardt nonlinear regression algorithm. Figure 3b,c were generated using GraphPad Prism v6.
# Rat DPP-IV enzyme and Fab mutant proteins were expressed and purified as previously described. […] For x-ray diffraction data collection, crystals were transferred into well solution with 30% (w/v) ethylene glycol and then flash frozen in liquid nitrogen.
# [1] = Table S6, Ala-Pro-AFC at 10 µM, one-hour incubation, triplicate, read-out: measured IC50's
# [2] = dipeptide substrate cleavage, read-out: DPP-IV IC50
# T1 sequence (P14740 whole entry): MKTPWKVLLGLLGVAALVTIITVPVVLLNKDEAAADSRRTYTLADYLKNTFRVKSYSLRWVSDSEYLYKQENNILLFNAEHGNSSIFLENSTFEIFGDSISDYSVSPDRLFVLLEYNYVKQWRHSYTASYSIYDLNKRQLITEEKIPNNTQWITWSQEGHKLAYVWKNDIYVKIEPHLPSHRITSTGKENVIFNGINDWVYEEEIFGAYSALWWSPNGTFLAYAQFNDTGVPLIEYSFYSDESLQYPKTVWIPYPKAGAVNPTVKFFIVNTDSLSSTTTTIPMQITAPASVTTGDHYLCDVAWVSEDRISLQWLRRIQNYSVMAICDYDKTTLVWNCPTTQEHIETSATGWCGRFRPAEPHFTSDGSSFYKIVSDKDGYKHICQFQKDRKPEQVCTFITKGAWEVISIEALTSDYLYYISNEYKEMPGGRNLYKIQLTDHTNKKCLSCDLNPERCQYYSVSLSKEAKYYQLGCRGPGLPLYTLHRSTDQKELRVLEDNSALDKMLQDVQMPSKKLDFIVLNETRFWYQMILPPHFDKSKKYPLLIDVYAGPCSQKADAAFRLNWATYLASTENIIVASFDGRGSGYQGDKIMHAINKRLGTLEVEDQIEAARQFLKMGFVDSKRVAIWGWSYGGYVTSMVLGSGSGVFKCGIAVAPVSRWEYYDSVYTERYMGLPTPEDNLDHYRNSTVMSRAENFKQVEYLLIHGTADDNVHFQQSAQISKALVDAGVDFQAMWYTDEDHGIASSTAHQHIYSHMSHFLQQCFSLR
compound,measurement,setting,value
CC(=O)NCCOCCOCCOCCOCCOCCNC(=O)CN1CCN(C(=O)C[C@H](N)Cc2cc(F)c(F)cc2F)CC1 [compound 6 (n = 5)],IC50,[1],146 nM
"CNC(=O)CN1CCN(C(=O)C[C@H](N)Cc2cc(F)c(F)cc2F)CC1.Cl [compound 2, (R)-2-(4-(3-amino-4-(2,4,5-trifluorophenyl)butanoyl)piperazin-1-yl)-N-methylacetamide hydrochloride]",IC50,[2],130 nM
same,potency loss as compared with sitagliptin,same experimental conditions,seven-fold
CC(=O)NCCOCCOCCOCCOCCNC(=O)CN1CCN(C(=O)C[C@H](N)Cc2cc(F)c(F)cc2F)CC1 [compound 6 (n = 4)],IC50,[1],100 nM
CC(=O)NCCOCCOCCOCCOCCOCCOCCOCCOCCOCCOCCNC(=O)CN1CCN(C(=O)C[C@H](N)Cc2cc(F)c(F)cc2F)CC1 [compound 6 (n = 10)],IC50,[1],152 nM
CC(=O)NCCOCCOCCOCCOCCOCCOCCOCCNC(=O)CN1CCN(C(=O)C[C@H](N)Cc2cc(F)c(F)cc2F)CC1 [compound 6 (n = 7)],IC50,[1],134 nM
COCCOCCOCCOCCOCCOCCOCCOCCNC(=O)CN1CCN(C(=O)C[C@H](N)Cc2cc(F)c(F)cc2F)CC1 [compound 4 (n = 7)],IC50,[2],70 nM
CC(=O)NCCOCCOCCOCCNC(=O)CN1CCN(C(=O)C[C@H](N)Cc2cc(F)c(F)cc2F)CC1 [compound 6 (n = 3)],IC50,[1],141 nM
CC(=O)NCCOCCOCCOCCOCCOCCOCCOCCOCCNC(=O)CN1CCN(C(=O)C[C@H](N)Cc2cc(F)c(F)cc2F)CC1 [compound 6 (n = 8)],IC50,[1],124 nM
CC(=O)NCCOCCOCCOCCOCCOCCOCCOCCOCCOCCOCCOCCNC(=O)CN1CCN(C(=O)C[C@H](N)Cc2cc(F)c(F)cc2F)CC1 [compound 6 (n = 11)],IC50,[1],160 nM
CC(=O)NCCOCCOCCOCCOCCOCCOCCNC(=O)CN1CCN(C(=O)C[C@H](N)Cc2cc(F)c(F)cc2F)CC1 [compound 6 (n = 6)],IC50,[1],119 nM
COCCOCCOCCOCCNC(=O)CN1CCN(C(=O)C[C@H](N)Cc2cc(F)c(F)cc2F)CC1 [compound 4 (n = 3)],IC50,[2],105 nM

# Source: article PMC5954141, “Structure-guided Discovery of Dual-recognition Chemibodies” (Scientific Reports, 2018)
